In the series the test system is dd-strain male mice. The series can be described thus: Acute toxicity test (minimum lethal dose, oral). Particulars: oral administration, three mice per group, mortality seven days after administration. In kind it is in vivo. Here is the method:
Test compounds were orally administered to groups of dd-strain male mice weighing 20 ± 1 g, each group consisting of three mice. Seven days after the administration, minimum lethal dose (MLD) of each compound was determined by observing the mortality.
As to `CCn1c(=O)c2c(nc(/C=C/c3ccc(OC)c(O)c3)n2C)n(CC)c1=O` [Compound 111, (E)-1,3-Diethyl-8-(3-hydroxy-4-methoxystyryl)-7-methylxanthine], the MLD is recorded as over 100 mg/kg.

In the case of `CCn1c(=O)c2[nH]c(/C=C/c3ccc(C(F)(F)F)cc3)nc2n(CC)c1=O` [Compound 73, (E)-1,3-Diethyl-8-(4-trifluoromethylstyryl)xanthine], the MLD is listed as over 100 mg/kg.

In the case of `CCn1c(=O)c2[nH]c(/C=C/c3cc(OC)c(OC)cc3[N+](=O)[O-])nc2n(CC)c1=O` [Compound 61, (E)-8-(4,5-Dimethoxy-2-nitrostyryl)-1,3-diethylxanthine], the MLD is over 100 mg/kg.

Take `CCOC(=O)COc1ccc(/C=C/c2nc3c(c(=O)n(CC)c(=O)n3CC)n2C)cc1` [Compound 117, (E)-8-(4-Ethoxycarbonylmethoxystyryl)-1,3-diethyl-7-methylxanthine]: the MLD is recorded as over 100 mg/kg.

The compound `CCn1c(=O)c2[nH]c(/C=C/c3ccc(F)c(F)c3)nc2n(CC)c1=O` [Compound 53, (E)-8-(3,4-Difluorostyryl)-1,3-diethylxanthine] yielded an MLD of over 300 mg/kg.

In turn, `CCn1c(=O)c2[nH]c(/C=C/c3ccc(-c4ccccc4)cc3)nc2n(CC)c1=O` [Compound 100, (E)-1,3-Diethyl-8-(4-phenylstyryl)xanthine] gave an MLD of over 100 mg/kg.

On to `CCn1c(=O)c2[nH]c(/C=C/c3ccccc3OC)nc2n(CC)c1=O` [Compound 45, (E)-1,3-Diethyl-8-(2-methoxystyryl)xanthine], for which the MLD was over 100 mg/kg.

On to `CCn1c(=O)c2[nH]c(/C=C/c3cc(C)c(OC)cc3C)nc2n(CC)c1=O` [Compound 11, (E)-1,3-Diethyl-8-(4-methoxy-2,5-dimethylstyryl)xanthine], for which the MLD is listed as over 300 mg/kg.

Take `CCn1c(=O)c2[nH]c(/C(F)=C\c3ccccc3)nc2n(CC)c1=O` [Compound 75, (E)-1,3-Diethyl-8-(α-fluorostyryl)xanthine]: the MLD is over 100 mg/kg.

Take `COc1ccc(/C=C/c2nc3c([nH]2)c(=O)n(C)c(=O)n3C)cc1Br` [Compound 57, (E)-8-(3-Bromo-4-methoxystyryl)theophylline]: the MLD is given as over 100 mg/kg.

For `CCn1c(=O)c2[nH]c(/C=C/c3ccc(O)cc3)nc2n(CC)c1=O` [Compound 121, (E)-1,3-Diethyl-8-(4-hydroxystyryl)xanthine], the MLD is given as over 100 mg/kg.

With `COc1cc(C)c(/C=C/c2nc3c(c(=O)n(C)c(=O)n3C)n2C)cc1C` [Compound 30, (E)-8-(4-Methoxy-2,5-dimethylstyryl)caffeine], the MLD was over 100 mg/kg.

The compound `CCn1c(=O)c2[nH]c(/C=C/c3cccc(Oc4ccccc4)c3)nc2n(CC)c1=O` [Compound 119, (E)-1,3-Diethyl-8-(3-phenoxystyryl)xanthine] registered an MLD of over 100 mg/kg.

Turning to `CCn1c(=O)c2[nH]c(/C=C/c3ccc(OC)cc3OC)nc2n(CC)c1=O` [Compound 5, (E)-8-(2,4-Dimethoxystyryl)-1,3-diethylxanthine], the MLD is over 100 mg/kg.

On to `CCn1c(=O)c2c(nc(/C=C/c3cc(F)cc(F)c3)n2C)n(CC)c1=O` [Compound 88, (E)-8-(3,5-Difluorostyryl)-1,3-diethyl-7-methylxanthine], for which the MLD is on record as over 100 mg/kg.

As to `CCn1c(=O)c2c(nc(/C=C/c3ccccc3OC)n2C)n(CC)c1=O` [Compound 46, (E)-1,3-Diethyl-8-(2-methoxystyryl)-7-methylxanthine], the MLD was over 100 mg/kg.

`CCn1c(=O)c2c(nc(/C(C)=C/c3ccccc3)n2C)n(CC)c1=O` [Compound 72, (E)-1,3-Diethyl-7-methyl-8-(α-methylstyryl)xanthine] returned an MLD of over 300 mg/kg.

`CCn1c(=O)c2[nH]c(/C=C/c3cc(C(F)(F)F)cc(C(F)(F)F)c3)nc2n(CC)c1=O` [Compound 85, (E)-8-[3,5-Bis(trifluoromethyl)styryl]-1,3-diethylxanthine] yielded an MLD of over 100 mg/kg.

`CCn1c(=O)c2c(nc(/C=C/c3ccc(OCC(=O)O)cc3)n2C)n(CC)c1=O` [Compound 118, (E)-8-(4-Carboxymethoxystyryl)-1,3-diethyl-7-methylxanthine] displayed an MLD of over 100 mg/kg.

Regarding `CCn1c(=O)c2c(nc(/C=C/c3ccc(O)c(C)c3C)n2C)n(CC)c1=O` [Compound 122, (E)-1,3-Diethyl-8-(4-hydroxy-2,3-dimethylstyryl)-7-methylxanthine], the MLD is over 100 mg/kg.

Turning to `CCn1c(=O)c2c(nc(/C=C/c3ccc(OCCCCN)cc3)n2C)n(CC)c1=O` [Compound 116, (E)-8-[4-(4-Aminobutoxy)styryl]-1,3-diethyl-7-methylxanthine], the MLD is recorded as over 100 mg/kg.

`CCn1c(=O)c2[nH]c(/C=C/c3cc(OC)c(OC)cc3Br)nc2n(CC)c1=O` [Compound 59, (E)-8-(2-Bromo-4,5-dimethoxystyryl)-1,3-diethylxanthine]: the MLD is over 100 mg/kg.

For the compound `CCn1c(=O)c2[nH]c(/C(C)=C/c3ccccc3)nc2n(CC)c1=O` [Compound 71, (E)-1,3-Diethyl-8-(α-methylstyryl)xanthine], the MLD is recorded as over 100 mg/kg.

For `CCn1c(=O)c2[nH]c(/C=C/c3cccc(Cl)c3)nc2n(CC)c1=O` [Compound 69, (E)-8-(3-Chlorostyryl)-1,3-diethylxanthine], the MLD is listed as over 100 mg/kg.

In the case of `CCn1c(=O)c2c(nc(/C=C/c3cc(OC)c(OC)cc3[N+](=O)[O-])n2C)n(CC)c1=O` [Compound 62, (E)-8-(4,5-Dimethoxy-2-nitrostyryl)-1,3-diethyl-7-methylxanthine], the MLD was over 300 mg/kg.

`CCn1c(=O)c2[nH]c(/C=C/c3cccc(OC)c3OC)nc2n(CC)c1=O` [Compound 3, (E)-8-(2,3-Dimethoxystyryl)-1,3-diethylxanthine] displayed an MLD of over 300 mg/kg.

`COc1cc(C)c(/C=C/c2nc3c([nH]2)c(=O)n(C)c(=O)n3C)cc1C` [Compound 29, (E)-8-(4-Methoxy-2,5-dimethylstyryl)theophylline]: the MLD was over 100 mg/kg.

With `CCn1c(=O)c2[nH]c(/C=C/c3ccc(F)c(Cl)c3)nc2n(CC)c1=O` [Compound 104, (E)-8-(3-Chloro-4-fluorostyryl)-1,3-diethylxanthine], the MLD is over 100 mg/kg.

For the origin of these results see patent publication EP0590919A1, “Therapeutic agents for parkinson's disease” (KYOWA HAKKO KOGYO CO., LTD., priority 1992, dated 1994).
